# Data from article PMC10901353, “Identification of a potent and selective LAPTc inhibitor by RapidFire-Mass Spectrometry, with antichagasic activity” (PLOS Neglected Tropical Diseases, 2024).
# Values joined by “and” are separate entries in the source; they are usually repeats but may differ in a detail not shown here. Equal entries are not always repeated. Where two headings read alike, the source gives them in different places.
# How the values were obtained:
# [1] = tested on: PfA-M17 (M17 LAP from Plasmodium falciparum); settings: cited from earlier work
# [2] = tested on: intracellular T. cruzi amastigotes; test: T. cruzi intracellular assay (high-content imaging, infected Vero cells); type: cell-based, Trypanosoma cruzi; set-up: Max Effect (T. cruzi): unit not given here; settings: for EC50 / Emax: Trypanosoma cruzi, Vero; for Emax: read-out: Max Effect (T. cruzi)
# Procedure: T. cruzi parasite, TcI strain Silvio X10/7 subclone A1 [34] was maintained in culture as previously described. Parasites were maintained as amastigotes by passaging on a weekly basis in Vero cells. Culture maintenance infections were carried out at an MOI (multiplicity of infection) of 1.5.
# (§1) This assay was performed as described with the only modification that treatment was 96 h instead of 72 h. Briefly, Vero cells were infected overnight with tissue culture derived T. cruzi trypomastigotes in T225 tissue culture flasks (MOI 5). Any remaining free trypomastigotes were washed away with serum free MEM and the infected Vero cells were harvested by trypsinisation. Compounds (250 nL in DMSO) were dispensed using LabCyte ECHO (Beckman Coulter Life Sciences, USA) into each well of Corning black flat bottomed 384-well plates (Corning, USA). […] The infected Vero cells were then plated into the plates containing the compounds, at 4,000 cells per well in MEM media with 1% FCS. After 96 h incubation at 37°C in presence of 5% CO2, the plates were fixed with 4% formaldehyde for 20 min at room temperature and stained with 5 μg/mL Hoechst 33342. The plates were imaged on a Perkin Elmer Operetta high-content imaging system using a 20× objective. Images were analyzed using the Columbus system (Perkin Elmer). The algorithm first identified the Vero nuclei followed by demarcation of the cytoplasm and identification of intracellular amastigotes. This algorithm reported percent infected Vero cell and total number of Vero cells. All potency determinations were carried out in at least three independent replicates and are reported as pEC50 +/- standard deviation. pEC50 = -log(EC50[M]).
# [3] = target: T1, LAPTc (acidic M17 leucyl-aminopeptidase from T. cruzi) (Trypanosoma cruzi, UniProt V5BWE3); test: Dose-response studies for LAPTc inhibition by RapidFire-MS; type: biochemical; settings: for Emax: read-out: Maximum Effect; for Hit Confirmation: whether primary screen hit confirmed in potency experiment
# T1 sequence (V5BWE3 entry or part of it): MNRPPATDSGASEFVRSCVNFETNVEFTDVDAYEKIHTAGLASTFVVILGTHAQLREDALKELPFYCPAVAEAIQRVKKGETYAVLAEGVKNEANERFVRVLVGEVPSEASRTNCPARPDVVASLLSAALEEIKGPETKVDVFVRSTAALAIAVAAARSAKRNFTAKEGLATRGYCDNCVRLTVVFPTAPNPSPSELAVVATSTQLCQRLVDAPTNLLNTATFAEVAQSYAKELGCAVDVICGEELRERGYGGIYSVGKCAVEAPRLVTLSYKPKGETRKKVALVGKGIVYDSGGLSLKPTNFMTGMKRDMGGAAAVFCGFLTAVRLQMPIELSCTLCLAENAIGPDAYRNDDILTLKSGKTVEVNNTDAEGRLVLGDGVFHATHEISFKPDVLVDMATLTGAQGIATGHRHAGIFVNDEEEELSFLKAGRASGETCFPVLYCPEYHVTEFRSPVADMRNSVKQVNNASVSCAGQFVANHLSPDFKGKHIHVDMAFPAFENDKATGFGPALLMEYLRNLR
# Procedure: (§2) This assay was previously described. The assay was performed in 384-well clear F-bottom polypropylene plates with a final reaction volume of 15 μL. The reaction mixture contained 7.5 μL LAPTc in 50 mM Tris-HCl, pH 7.5, 0.005% NP-40 and 7.5 μL LSTVIVR peptide substrate (Cambridge Research Biochemicals, Billingham, UK) in the same buffer was added to start the reaction. The reaction was performed at room temperature for 40 min and then stopped with 85 μL 1% formic acid containing 0.15 mg/mL STVIVR* internal standard (Cambridge Research Biochemicals, Billingham, UK).
# To generate half-maximum inhibitory concentration (IC50) data for LAPTc, 10-point dose-response curves with 100 μM as highest concentration and 1:2 dilution in DMSO (0.195–100 μM range) were prepared in 384 well plates. All other experimental conditions were as described above. All IC50 curve fitting was performed by four-parameter logistic dose-response curve fit using ActivityBase XE (IDBS). At least three replicates were generated for each hit compound.
# [4] = target: T1, LAPTc (acidic M17 leucyl-aminopeptidase from T. cruzi); test: High-throughput single point screening for LAPTc inhibitors by RapidFire-MS; type: biochemical; settings: primary screen, 30 μM, single replicate; read-out: Percent Inhibition
# Procedure: as §2
# Single point screening of a library of 3329 compounds was performed in 384-well clear plates (Greiner 781101) at room temperature. Test compounds (45 nL in DMSO) were transferred to assay plates by an ECHO 550 acoustic dispenser (Labcyte). LAPTc was tested at 3 nM with 150 μM (approximately the value of the apparent Michaelis-Menten constant -appKM- [16]) LSTVIVR peptide substrate in a 40 min reaction. Before addition of substrate, LAPTc was preincubated with 45 nL compounds or DMSO for 15 min. Compounds, dissolved in DMSO, were tested at 30 μM. Controls without compound (the same volume of DMSO, 0% inhibitory effect) and without enzyme and compound (100% inhibitory effect) were prepared. The experiment was performed without replicates. The remaining experimental conditions were maintained as previously described. Data were processed and analysed through ActivityBase XE (IDBS). The selection criterion for hits in this single point screen was percent inhibition larger than the mean plus three standard deviations. All primary screening data are available in ChEMBL (see Data Availability statement).
# [5] = tested on: Vero cells; test: Cytotoxicity against infected Vero host cells in T. cruzi intracellular assay; type: cell-based, African green monkey; set-up: Max Effect (Vero): unit not given here; settings: for Max Effect (Vero) / pEC50 (Vero): individual replicates
# Procedure: (§3) Briefly, these cells were maintained at 37°C and 5% CO2 in MEM supplemented with 10% FCS, sub-culturing every 2–3 days at a ratio of 1:5 after 5 min treatment with Trypsin-EDTA (Gibco).
# as §1, with “After 96 h incubation at 37°C in presence of 5% CO2, the plates were fixed with 4% formaldehyde for 20 min at room temperature and stained with 5 μg/mL Hoechst 33342.” left out
# [6] = as above; type: cell-based, African green monkey; set-up: Max Effect (Vero): unit not given here; settings: African green monkey, infected Vero host cells, 96 h, read-out: pCC50 (Vero) +/- StDev (converted)
# Procedure: as §3
# as §1, with “After 96 h incubation at 37°C in presence of 5% CO2, the plates were fixed with 4% formaldehyde for 20 min at room temperature and stained with 5 μg/mL Hoechst 33342.” left out
# [7] = tested on: HepG2 cells; test: Cytotoxicity assay on human HepG2 cells (resazurin); type: cell-based; settings: for Max Effect (HepG2) / pEC50 (HepG2): individual replicates
# [8] = as above; type: cell-based; settings: human, 72 h
# [9] = tested on: intracellular T. cruzi amastigotes; set-up: method as in PMID 30001347; settings: reported previously in this assay ref 33; cited from earlier work
# [10] = 96 h, four independent experiments, read-out: pEC50 (T. cruzi) +/- StDev (converted)
# [11] = individual replicates, read-out: pEC50 (T. cruzi) (converted)
# [12] = Initial hit confirmation, single replicate
# [13] = Initial hit confirmation, single replicate, read-out: pIC50 (converted)
# [14] = Replicate data generation, individual replicates
# [15] = Replicate data generation, individual replicates, read-out: pIC50 (converted)
# [16] = average of four independent replicates, read-out: pIC50 +/- StDev (LAPTc) (converted)
# [17] = Vero cells infected with T. cruzi
# [18] = HepG2 cells, two independent experiments, read-out: pCC50 (HepG2) (converted)
compound,measurement,setting,value
NC(CCc1ccccc1)P(=O)(O)CC(Cc1ccccc1)C(=O)O (stereo not shown) [Co4],Ki,[1],0.013 µM
O=C(NO)C(NC(=O)C12CC3CC(CC(C3)C1)C2)c1ccc(-c2cc(F)c(F)c(F)c2)cc1 (stereo not shown) [Compound 6k],Ki,[1],0.0289 µM
CC(C)(C)C(=O)NC(C(=O)NO)c1ccc(-c2cc(F)c(F)c(F)c2)cc1 (stereo not shown) [Compound 10o],Ki,[1],0.06 µM
c1ccc(Cc2ccc(OCCn3ccnc3)cc2)cc1 [Compound 13],EC50,[2]; [10],2.14 µM
same,EC50,"[2]; 96 h, read-out: EC50 (T. cruzi amastigotes)",2 µM
same,Emax,[2]; individual replicates,94%
same,EC50,[2]; [11],1.58 µM
same,Max Effect (T. cruzi),[2]; individual replicates,97 and 84 and 87
same,pEC50 (T. cruzi),[2]; individual replicates,5.6 and 5.7
same,Hill Slope,[3]; [12],1.3
same,Emax,[3]; [12],77%
same,IC50,[3]; [13],31.6 µM
same,Hill Slope,[3]; [14],0.9 and 1.3 and 1.5
same,Maximum Effect,[3]; [14],74%
same,Emax,[3]; [14],67%
same,IC50,[3]; [15],31.6 µM and 15.8 µM
same,IC50,[3]; [16],21.9 µM
same,Hit Confirmation,[3],confirmed
same,inhibition at 30 µM,[4],41%
same,Selectivity index (fold window Tc/Vero),[5],2.3 fold
same,Max Effect (Vero),[5],95 and 94 and 89 and 87
same,pEC50 (Vero),[5],5.3 and 5.4 and 5.2
same,CC50 at 96 h,[6]; [17],5.01 µM
same,Selectivity window based on the HepG2 data,[7]; T. cruzi vs HepG2,20 fold
same,Max Effect (HepG2),[7],81 and 82
same,pEC50 (HepG2),[7],4.4
same,CC50 at 72 h,[8]; [18],43.7 µM
same,CC50 at 72 h,"[8]; HepG2 cells, read-out: CC50 (HepG2)",43 µM
CC(C)(C)C(=O)NC(C(=O)NO)c1ccc(-n2cccn2)cc1 (stereo not shown) [Compound 13d],Ki,[1],0.028 µM
N#CC(=Cc1cn(Cc2ccc(C(=O)O)o2)c2ccccc12)c1nc2ccccc2[nH]1 [Compound 15],EC50,"[2]; 96 h, read-out: pEC50 (T. cruzi) +/- StDev (converted)",> 50.1 µM
same,Emax,[2]; individual replicates,24%
same,EC50,[2]; [11],> 50.1 µM
same,Max Effect (T. cruzi),[2]; individual replicates,19 and 38
same,Hill Slope,[3]; [12],1.5
same,Emax,[3]; [12],92%
same,IC50,[3]; [13],12.6 µM
same,Hill Slope,[3]; [14],1.7 and 1.4 and 1.5
same,Maximum Effect,[3]; [14],87%
same,Emax,[3]; [14],88%
same,IC50,[3]; [15],25.1 µM and 31.6 µM
same,IC50,[3]; [16],22.9 µM
same,Hit Confirmation,[3],confirmed
same,inhibition at 30 µM,[4],39%
same,Max Effect (Vero),[5],63 and 36 and 65 and 66
same,pEC50 (Vero),[5],4.4 and < 4.3 and 4.5 and 4.3
same,CC50 at 96 h,[6],38 µM
same,Max Effect (HepG2),[7],2.23 and 3
same,pEC50 (HepG2),[7],< 4.0
same,CC50 at 72 h,"[8]; two independent experiments, read-out: pCC50 (HepG2) (converted)",> 100 µM
CCCS(=O)(=O)c1ccc(NS(=O)(=O)c2sc3ccc(Cl)cc3c2C)cc1 [Compound 24],EC50,[2]; [10],14.8 µM
same,Max Effect (T. cruzi),[2]; individual replicates,100 and 75 and 105 and 84
same,pEC50 (T. cruzi),[2]; individual replicates,4.8 and 4.7 and 5.1
same,Hill Slope,[3]; [12],2.4
same,Emax,[3]; [12],96%
same,IC50,[3]; [13],31.6 µM
same,Hill Slope,[3]; [14],2.4 and 2.3 and 2.6
same,Emax,[3]; [14],99%
same,IC50,[3]; [15],12.6 µM and 15.8 µM
same,IC50,[3]; [16],17.8 µM
same,Hit Confirmation,[3],confirmed
same,inhibition at 30 µM,[4],29%
same,Max Effect (Vero),[5],92 and 90 and 88 and 91
same,pEC50 (Vero),[5],4.9 and 5.0
same,CC50 at 96 h,[6]; [17],11.5 µM
same,Max Effect (HepG2),[7],-2 and -0.697
same,pEC50 (HepG2),[7],< 4.0
same,CC50 at 72 h,[8]; [18],> 100 µM
NC(=O)C1Cc2ccccc2CN1C(=O)Cc1cn2ccsc2n1 (stereo not shown) [Compound 28],EC50,[2]; [10],> 50.1 µM
same,Emax,[2]; individual replicates,27%
same,EC50,[2]; [11],> 50.1 µM
same,Max Effect (T. cruzi),[2]; individual replicates,21 and 20 and 35
same,Hill Slope,[3]; [12],0.9
same,Emax,[3]; [12],87%
same,IC50,[3]; [13],10 µM
same,Hill Slope,[3]; [14],1.5 and 1.4
same,Maximum Effect,[3]; [14],72% and 74%
same,Emax,[3]; [14],73%
same,IC50,[3]; [15],39.8 µM and 50.1 µM
same,IC50,[3]; [16],30.2 µM
same,Hit Confirmation,[3],confirmed
same,inhibition at 30 µM,[4],27%
same,Max Effect (Vero),[5],32 and 37 and 15 and 16
same,pEC50 (Vero),[5],< 4.3
same,CC50 at 96 h,[6]; [17],> 50.1 µM
same,Max Effect (HepG2),[7],2.59 and 4.33
same,pEC50 (HepG2),[7],< 4.0
same,CC50 at 72 h,[8]; [18],> 100 µM
O=C(Cn1ccnc1[N+](=O)[O-])NCc1ccccc1 [benznidazole],EC50,[9],2 µM
same,pEC50 (T. cruzi),[9],5.7
"CC(C)C[C@H](NC(=O)[C@@H](O)[C@H](N)Cc1ccccc1)C(=O)O [bestatin, reference compound]",IC50,[3]; [16],0.24 µM
same,Ki,[1],0.025 µM
CC1CS(=O)(=O)CCN1/N=C/c1ccc([N+](=O)[O-])o1 (stereo not shown) [nifurtimox],EC50,[9],0.8 µM
same,pEC50 (T. cruzi),[9],6.1
CC(C)C[C@@H](NC(=O)[C@H](O)[C@@H](N)Cc1ccc([N+](=O)[O-])cc1)C(=O)O [nitrobestatin],Ki,[1],0.0027 µM
